Laboratory results taken from the supplement of paper PMC13380429.

Experiments:
Conditions in all cases: 72 h
Caco-2 [1] = assay: cell viability relative to DMSO; higher = less toxic
Calu-3 [2] = assay: as above
HepG2 [3] = assay: as above
U2OS [4] = assay: as above
Vero E6 [5] = assay: as above
Caco-2 [6] = assay: relative viability EC50 (midpoint between 100% and the lowest measured viability); higher = less toxic
Calu-3 [7] = assay: as above
HepG2 [8] = assay: as above
U2OS [9] = assay: as above
Vero E6 [10] = assay: as above
Caco-2 [11] = assay: drug sensitivity score (DSS) for viability; higher = more toxic; extreme values may be limits of the assay
Calu-3 [12] = assay: as above
HepG2 [13] = assay: as above
U2OS [14] = assay: as above
Vero E6 [15] = assay: as above

SMILES | cell viability (Caco-2 [1]; 1 nM) [%] | cell viability (Caco-2 [1]; 10 nM) [%] | cell viability (Caco-2 [1]; 100 nM) [%] | cell viability (Caco-2 [1]; 1000 nM) [%] | cell viability (Caco-2 [1]; 10000 nM) [%] | cell viability (Calu-3 [2]; 1 nM) [%] | cell viability (Calu-3 [2]; 10 nM) [%] | cell viability (Calu-3 [2]; 100 nM) [%] | cell viability (Calu-3 [2]; 1000 nM) [%] | cell viability (Calu-3 [2]; 10000 nM) [%] | cell viability (HepG2 [3]; 1 nM) [%] | cell viability (HepG2 [3]; 10 nM) [%] | cell viability (HepG2 [3]; 100 nM) [%] | cell viability (HepG2 [3]; 1000 nM) [%] | cell viability (HepG2 [3]; 10000 nM) [%] | cell viability (U2OS [4]; 1 nM) [%] | cell viability (U2OS [4]; 10 nM) [%] | cell viability (U2OS [4]; 100 nM) [%] | cell viability (U2OS [4]; 1000 nM) [%] | cell viability (U2OS [4]; 10000 nM) [%] | cell viability (Vero E6 [5]; 1 nM) [%] | cell viability (Vero E6 [5]; 10 nM) [%] | cell viability (Vero E6 [5]; 100 nM) [%] | cell viability (Vero E6 [5]; 1000 nM) [%] | cell viability (Vero E6 [5]; 10000 nM) [%] | relative viability EC50 (Caco-2 [6]) [µM] | relative viability EC50 (Calu-3 [7]) [µM] | relative viability EC50 (HepG2 [8]) [µM] | relative viability EC50 (U2OS [9]) [µM] | relative viability EC50 (Vero E6 [10]) [µM] | drug sensitivity score (Caco-2 [11]) | drug sensitivity score (Calu-3 [12]) | drug sensitivity score (HepG2 [13]) | drug sensitivity score (U2OS [14]) | drug sensitivity score (Vero E6 [15])
CC(C)N(CCc1c[nH]c2ccccc12)C(C)C [DIPT] | 95 | 103 | 107 | 101 | 102 | 85.7 | 95.4 | 97.5 | 96 | 103 | 93.2 | 86.3 | 99.5 | 86 | 95.7 | 101 | 99.7 | 98.2 | 102 | 96.6 | 103 | 98.9 | 101 | 95.1 | 97.4 | > 10 | > 10 | > 10 | > 10 | > 10 | 0 | 0 | 0 | 0 | 0
CS(=O)(=O)c1ccc(-c2cnc(NCc3ccco3)n3cnnc23)cc1 [EED226] | 95.7 | 82.8 | 104 | 88.1 | 103 | 102 | 102 | 94.4 | 111 | 111 | 99.8 | 92.8 | 94.6 | 102 | 87 | 98.3 | 97.1 | 98.5 | 97.4 | 98 | 107 | 100 | 103 | 105 | 98 | > 10 | > 10 | > 10 | > 10 | > 10 | 0 | 0 | 0.1 | 0 | 0
CCC(CC)n1ccc2c(C(=O)NCc3c(C)cc(C)[nH]c3=O)cc(C#N)cc21 [EI1] | 105 | 95.1 | 97.2 | 95.4 | 93.6 | 94.2 | 96.6 | 101 | 109 | 102 | 90.7 | 92.3 | 101 | 93.7 | 97.6 | 98.7 | 99.4 | 93.8 | 96.1 | 101 | 105 | 100 | 107 | 97.5 | 104 | > 10 | > 10 | > 10 | > 10 | > 10 | 0 | 0 | 0 | 0 | 0
CCOc1cccc(NC(=O)c2ccc(N3CCCC3)c(C(F)(F)F)c2)c1 [EPPTB] | 106 | 101 | 89 | 92.7 | 86.4 | 98.9 | 99.5 | 98.3 | 102 | 83.9 | 90.9 | 96.2 | 96.4 | 91.5 | 97.5 | 101 | 99.2 | 97.4 | 99.1 | 90.9 | 101 | 102 | 97.3 | 95.5 | 101 | > 10 | > 10 | > 10 | > 10 | > 10 | 1.6 | 0.2 | 0 | 0 | 0
CCCCC(=O)O[C@H]1CC[C@H]2[C@@H]3CCc4cc(O)ccc4[C@H]3CC[C@]12C [ESTRADIOL VALERATE] | 104 | 94.6 | 97 | 105 | 85.8 | 99.8 | 104 | 96.4 | 97.8 | 83.8 | 109 | 106 | 101 | 97.6 | 108 | 106 | 108 | 103 | 106 | 96.5 | 101 | 102 | 103 | 99.5 | 100 | > 10 | > 10 | > 10 | > 10 | > 10 | 0.1 | 0.6 | 0 | 0 | 0
C[C@@H](NC(=O)[C@@H](N)Cc1ccc(O)cc1)C(=O)NCC(=O)N(C)[C@@H](Cc1ccccc1)C(=O)N[C@H](CO)CC[S+](C)[O-] (stereo not given in full) [FK-33-824] | 98 | 95.7 | 90.7 | 96.1 | 102 | 98.7 | 94.1 | 99.4 | 92.1 | 92.6 | 98.9 | 93.7 | 109 | 101 | 100 | 98.8 | 106 | 98.6 | 101 | 100 | 99.5 | 97.5 | 93.3 | 97 | 107 | > 10 | > 10 | > 10 | > 10 | > 10 | 0 | 0 | 0 | 0 | 0
